From paper PMC8997832, “Genetic Engineering Production of Ethyl Carbamate Hydrolase and Its Application in Degrading Ethyl Carbamate in Chinese Liquor” (Foods, 2022) come the findings set out here.

The subject of the assay is T1, ethyl carbamate hydrolase (ECH; AcECH).
T1 construct: codon-optimized synthetic gene in pET24b (NdeI/XhoI), C-terminal His-tag kept, E. coli BL21(DE3), Ni-NTA purified; about 33 kDa by SDS-PAGE
In words: Berthelot indophenol ammonia assay, […] nm; Lineweaver-Burk. The settings on record: free enzyme; 5-30 mM EC; standard assay 70 °C, pH 7.0 (not restated for kinetics). Format: biochemical, Acinetobacter calcoaceticus.

As usually defined, the Km is the substrate concentration at which the rate is half of its maximum. For the compound `CCOC(N)=O` [EC, ethyl carbamate], the Km stood at 9.38 mM.
